Source: PubChem BioAssay AID196 (DTP/NCI, 2004)
“And” between values parts separate entries of the source, which are not always exact repeats. Equal entries are not always repeated. Toxic doses and inconclusive results are not listed. How the source made its calls: active means survival T/C of 150% or more; inactive means T/C below 125% in these data.

System: BDF1 mice, intracerebral B16 melanoma, median survival T/C
Assay: NCI In Vivo Anticancer Drug Screen. Data for tumor model B16 Melanoma (intracerebral) in B6D2F1 (BDF1) mice
Conditions: endpoint: median survival time, higher = longer survival
Protocol: The antitumor activity of compounds was measured in mice bearing transplantable tumors. Survival or tumor size were measured and the results are expressed as the measurement made in the treated group (T) divided by the measurement made in the vehicle treated control group (C). The tumor model used in this assay is B16 Melanoma (intracerebral) in B6D2F1 (BDF1) mice

[1] = dose: 0.38 mg/kg/injection, schedule: Q01DX009 (ip), vehicle: saline
[2] = dose: 0.75 mg/kg/injection, schedule: Q01DX009 (ip), vehicle: saline
[3] = dose: 1.0 mg/kg/injection, schedule: Q01DX009 (ip), vehicle: saline
[4] = dose: 2.0 mg/kg/injection, schedule: Q01DX009 (ip), vehicle: saline
[5] = dose: 8.0 mg/kg/injection, schedule: Q01DX009 (ip), vehicle: Klucel (hydroxypropylcellulose) (HPC)
[6] = dose: 16.0 mg/kg/injection, schedule: Q01DX009 (ip), vehicle: Klucel (hydroxypropylcellulose) (HPC)
[7] = dose: 32.0 mg/kg/injection, schedule: Q01DX009 (ip), vehicle: Klucel (hydroxypropylcellulose) (HPC)
[8] = dose: 64.0 mg/kg/injection, schedule: Q01DX009 (ip), vehicle: Klucel (hydroxypropylcellulose) (HPC)
[9] = dose: 128.0 mg/kg/injection, schedule: Q01DX009 (ip), vehicle: Klucel (hydroxypropylcellulose) (HPC)
[10] = dose: 256.0 mg/kg/injection, schedule: Q01DX009 (ip), vehicle: Klucel (hydroxypropylcellulose) (HPC)
[11] = dose: 512.0 mg/kg/injection, schedule: Q01DX009 (ip), vehicle: Klucel (hydroxypropylcellulose) (HPC)

Measured: T/C

O=NN(CCCl)C(=O)NC1OC(CO)C(O)C(O)C1O (stereo unspecified)
inactive: dose: 0.31 mg/kg/injection, schedule: Q01DX009 (ip), vehicle: saline 112 % of control | dose: 0.62 mg/kg/injection, schedule: Q01DX009 (ip), vehicle: saline 109 % of control | dose: 1.25 mg/kg/injection, schedule: Q01DX009 (ip), vehicle: saline 115 % of control | dose: 2.5 mg/kg/injection, schedule: Q01DX009 (ip), vehicle: saline 106 % of control | dose: 5.0 mg/kg/injection, schedule: Q01DX009 (ip), vehicle: saline 122 % of control

Cc1[nH]c(=O)[nH]c(=O)c1N(CCF)CCCl
inactive: dose: 2.0 mg/kg/injection, schedule: Q01DX009 (ip), vehicle: water 107 % of control | dose: 4.0 mg/kg/injection, schedule: Q01DX009 (ip), vehicle: water 104 % of control | dose: 8.0 mg/kg/injection, schedule: Q01DX009 (ip), vehicle: water 112 % of control | dose: 16.0 mg/kg/injection, schedule: Q01DX009 (ip), vehicle: water 104 % of control | dose: 32.0 mg/kg/injection, schedule: Q01DX009 (ip), vehicle: water 102 % of control

CN(Cc1cnc2nc(N)nc(N)c2n1)c1ccc(C(=O)N[C@@H](CCC(=O)O)C(=O)O)cc1
inactive: [1] 108 % of control | dose: 0.5 mg/kg/injection, schedule: Q01DX009 (ip), vehicle: sodium bicarbonate 104 % of control | [2] 100 % of control and 104 % of control | dose: 1.0 mg/kg/injection, schedule: Q01DX009 (ip), vehicle: sodium bicarbonate 100 % of control | dose: 1.5 mg/kg/injection, schedule: Q01DX009 (ip), vehicle: saline 95 % of control and 100 % of control | dose: 2.0 mg/kg/injection, schedule: Q01DX009 (ip), vehicle: sodium bicarbonate 95 % of control | dose: 3.0 mg/kg/injection, schedule: Q01DX009 (ip), vehicle: saline 112 % of control | dose: 4.0 mg/kg/injection, schedule: Q01DX009 (ip), vehicle: sodium bicarbonate 100 % of control

COc1cccc2c1C(=O)c1c(O)c3c(c(O)c1C2=O)C[C@@](O)(/C(C)=N/NC(=O)c1ccccc1)C[C@@H]3OC1CC(N)C(O)C(C)O1 (stereo partly specified)
inactive: dose: 1.0 mg/kg/injection, schedule: Q01DX009 (ip), vehicle: saline with Tween-80 105 % of control | [3] 89 % of control | dose: 2.0 mg/kg/injection, schedule: Q01DX009 (ip), vehicle: saline with Tween-80 111 % of control | [4] 89 % of control and 95 % of control | dose: 4.0 mg/kg/injection, schedule: Q01DX009 (ip), vehicle: saline with Tween-80 109 % of control | dose: 4.0 mg/kg/injection, schedule: Q01DX009 (ip), vehicle: saline 93 % of control and 100 % of control | dose: 8.0 mg/kg/injection, schedule: Q01DX009 (ip), vehicle: saline 99 % of control

CN(C)N=Nc1ccnc2ccc(I)cc12
inactive: dose: 3.12 mg/kg/injection, schedule: Q01DX009 (ip), vehicle: other 112 % of control | dose: 6.25 mg/kg/injection, schedule: Q01DX009 (ip), vehicle: other 110 % of control | dose: 12.5 mg/kg/injection, schedule: Q01DX009 (ip), vehicle: other 95 % of control | dose: 25.0 mg/kg/injection, schedule: Q01DX009 (ip), vehicle: other 110 % of control | dose: 50.0 mg/kg/injection, schedule: Q01DX009 (ip), vehicle: other 109 % of control

CCC(=O)O[C@H]1CC[C@H]2[C@@H]3CC[C@H]4CC(=O)[C@H](C)C[C@]4(C)[C@H]3CC[C@]12C
inactive: [5] 100 % of control | [6] 94 % of control | [7] 105 % of control | [8] 100 % of control | [9] 101 % of control | [10] 103 % of control | [11] 94 % of control

O=C1C(NCCO)=C(N2CC2)C(=O)C(NCCO)=C1N1CC1
inactive: dose: 0.09 mg/kg/injection, schedule: Q01DX009 (ip), vehicle: saline 97 % of control | dose: 0.19 mg/kg/injection, schedule: Q01DX009 (ip), vehicle: saline 103 % of control | [1] 109 % of control | [2] 100 % of control

CCC(=O)O[C@H]1CC[C@H]2[C@@H]3CCC4=CC(=O)CC[C@]4(C)[C@H]3CC[C@]12C
inactive: [5] 99 % of control | [6] 116 % of control | [7] 111 % of control | [8] 99 % of control | [9] 123 % of control | [10] 97 % of control | [11] 104 % of control

O=C1NC2(CCCCC2)C(=O)N1CCN(CCCl)CCCl
inactive: dose: 1.5 mg/kg/injection, schedule: Q01DX009 (ip), vehicle: saline with Tween-80 97 % of control | dose: 3.0 mg/kg/injection, schedule: Q01DX009 (ip), vehicle: saline with Tween-80 103 % of control | dose: 6.0 mg/kg/injection, schedule: Q01DX009 (ip), vehicle: saline with Tween-80 106 % of control | dose: 12.0 mg/kg/injection, schedule: Q01DX009 (ip), vehicle: saline with Tween-80 103 % of control

NC(=S)N/N=C/c1ccc(O)cn1
inactive: dose: 12.0 mg/kg/injection, schedule: Q01DX005 (ip), vehicle: saline 96 % of control | dose: 12.0 mg/kg/injection, schedule: Q01DX005 (ip), vehicle: suspension in saline 103 % of control | dose: 24.0 mg/kg/injection, schedule: Q01DX005 (ip), vehicle: saline 93 % of control | dose: 24.0 mg/kg/injection, schedule: Q01DX005 (ip), vehicle: suspension in saline 96 % of control | dose: 48.0 mg/kg/injection, schedule: Q01DX005 (ip), vehicle: saline 100 % of control | dose: 48.0 mg/kg/injection, schedule: Q01DX005 (ip), vehicle: suspension in saline 91 % of control | dose: 96.0 mg/kg/injection, schedule: Q01DX005 (ip), vehicle: saline 97 % of control | dose: 96.0 mg/kg/injection, schedule: Q01DX005 (ip), vehicle: suspension in saline 108 % of control

COc1ccc2c(c1)CCC(c1ccccc1)=C2c1ccc(OCCN2CCCC2)cc1
inactive: dose: 3.0 mg/kg/injection, schedule: Q01DX005 (ip), vehicle: Klucel (hydroxypropylcellulose) (HPC) 97 % of control | dose: 6.0 mg/kg/injection, schedule: Q01DX005 (ip), vehicle: Klucel (hydroxypropylcellulose) (HPC) 97 % of control | dose: 12.0 mg/kg/injection, schedule: Q01DX005 (ip), vehicle: Klucel (hydroxypropylcellulose) (HPC) 95 % of control and 105 % of control | dose: 24.0 mg/kg/injection, schedule: Q01DX005 (ip), vehicle: Klucel (hydroxypropylcellulose) (HPC) 124 % of control and 96 % of control and 108 % of control | dose: 48.0 mg/kg/injection, schedule: Q01DX005 (ip), vehicle: Klucel (hydroxypropylcellulose) (HPC) 92 % of control and 112 % of control | dose: 96.0 mg/kg/injection, schedule: Q01DX005 (ip), vehicle: Klucel (hydroxypropylcellulose) (HPC) 100 % of control

COc1ccc(CC2C(=O)NC(C)C(=O)N(C)C3C(=O)N(C)C(Cc4ccc(O)c(c4)Oc4ccc(cc4)C3O)C(=O)NC(C)C(=O)NC(C)C(=O)N2C)cc1 (stereo unspecified)
inactive: dose: 0.12 mg/kg/injection, schedule: Q01DX009 (ip), vehicle: Klucel (hydroxypropylcellulose) (HPC) 97 % of control and 102 % of control | dose: 0.12 mg/kg/injection, schedule: Q01DX009 (ip), vehicle: saline 93 % of control | dose: 0.25 mg/kg/injection, schedule: Q01DX009 (ip), vehicle: Klucel (hydroxypropylcellulose) (HPC) 100 % of control and 108 % of control | dose: 0.25 mg/kg/injection, schedule: Q01DX009 (ip), vehicle: saline 103 % of control | dose: 0.5 mg/kg/injection, schedule: Q01DX009 (ip), vehicle: Klucel (hydroxypropylcellulose) (HPC) 94 % of control and 97 % of control and 100 % of control | dose: 0.5 mg/kg/injection, schedule: Q01DX009 (ip), vehicle: saline 102 % of control | dose: 1.0 mg/kg/injection, schedule: Q01DX009 (ip), vehicle: Klucel (hydroxypropylcellulose) (HPC) 90 % of control and 94 % of control and 100 % of control | [3] 98 % of control | [4] 100 % of control

COc1cc(NS(C)(=O)=O)ccc1Nc1c2cccc(C)c2nc2c(C)cccc12
inactive: dose: 25.0 mg/kg/injection, schedule: Q04DX003 (ip), vehicle: Klucel (hydroxypropylcellulose) (HPC) 97 % of control | dose: 25.0 mg/kg/injection, schedule: Q04DX003 (ip), vehicle: saline 104 % of control | dose: 50.0 mg/kg/injection, schedule: Q04DX003 (ip), vehicle: Klucel (hydroxypropylcellulose) (HPC) 94 % of control | dose: 50.0 mg/kg/injection, schedule: Q04DX003 (ip), vehicle: saline 116 % of control | dose: 100.0 mg/kg/injection, schedule: Q04DX003 (ip), vehicle: saline 95 % of control | dose: 200.0 mg/kg/injection, schedule: Q04DX003 (ip), vehicle: saline 104 % of control
